Key:
CB2 receptor = molecular target: T1, CB2 receptor (Rattus norvegicus, UniProt Q9QZN9); conditions: background literature statement; cited from earlier work
T1 sequence (Q9QZN9 1-360): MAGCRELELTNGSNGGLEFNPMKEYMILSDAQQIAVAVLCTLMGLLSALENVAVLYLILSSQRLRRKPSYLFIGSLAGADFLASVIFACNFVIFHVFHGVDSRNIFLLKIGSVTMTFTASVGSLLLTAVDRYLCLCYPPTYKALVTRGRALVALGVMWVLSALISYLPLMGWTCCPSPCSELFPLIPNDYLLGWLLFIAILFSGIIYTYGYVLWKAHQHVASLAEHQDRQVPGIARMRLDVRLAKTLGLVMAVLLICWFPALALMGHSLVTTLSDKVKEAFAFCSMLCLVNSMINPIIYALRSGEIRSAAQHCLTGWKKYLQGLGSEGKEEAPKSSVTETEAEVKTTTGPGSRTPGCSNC

Male CD-1 mice = assay: Hot-plate nociception test; assay type: in vivo, mouse; conditions: 30 min after dosing, 48° C. hot plate, cut-off 90 sec, ± SEM
Source text: The hot-plate test originally described by Eddy and Leimbach (J. Pharmacol. Exp. Ther. 107:385-393, 1953) with minor modifications (e.g., O'Callaghan and Holtzman, J. Pharmacol. Exp. Ther. 192: 497-505, 1975) was used to ascertain the analgesic potential of investigated compounds. The hot plate analgesia meter used for these studies was produced by Columbus Instruments International (Columbus, Ohio).
Male CD-1 mice (30-35 g) were weighed, placed in a plastic box with wood chips and allowed to acclimate before testing. An individual mouse was placed on a 48° C. heated surface and locomotion on the plate was constrained by a glass cylinder. The time interval between placement and a shaking, licking or tucking of either hind-paw (nociceptive response) was recorded as the Baseline measurement. Animals were removed from the heated plate immediately after responding or after a maximum of 40 sec to prevent tissue damage. Each mouse was tested only once.
One treatment group (9 animals each) was then injected i.p. with vehicle (5% DMSO and 5% Tween-80 in sterile saline). The other treatment groups (8 animals each) were injected i.p. with 10 or 30 mg/kg Compound I. Thirty minutes after test compound administration, each animal was assessed for a response with a maximum cut-off of 90 sec. […]

[1] = tested on: Rats (male Sprague Dawley); assay: Visceral hyperalgesia model, colorectal distension after zymosan colitis; assay type: in vivo, rat; conditions: ± SEM
Description: This protocol uses barostat-controlled, isobaric colorectal distensions (CRD) in rats to evaluate the potency and efficacy of test compounds in treating visceral hyperalgesia.
Rats (male Sprague Dawley (275-350 g; CD(SD); Charles River Labs) are housed 2 to 4 animals per cage in a temperature and humidity controlled room with a 12 hr/12 hr light/dark cycle, with ad libitum access to food and water.
One day after release from quarantine, the animals were acclimated to progressively longer (30 min and 4 hr later, 45 min) periods of simple restraint in plexiglas devices (G-3, rat ECU; Braintree Scientific; Braintree Mass.). The animals were returned to their home cages overnight. The next day they were acclimated in the restraint device for 60 min in the morning. 4 hrs later, the animals were lightly anesthetized with 70% CO2:30% O2. A highly compliant, 4 cm long polyethylene balloon, lubricated with K-Y Jelly was then inserted via the anus into the rectum and distal colon. The balloon was positioned such that the aboral end was 1 cm from the anus and was secured in place by taping the balloon catheter to the base of the tail. The catheter was connected to a computerized barostat that controlled the inflation of the balloon and the resulting colorectal distension. The balloon pressure, representing intracolonic pressure, was continuously recorded.
CRD in conscious animals elicits a reflex visceromotor response consisting of contraction of the anterior abdominal wall muscles (Ness T J and Gebhart G F, Colorectal distension as a noxious visceral stimulus: physiologic and pharmacologic characterization of pseudaffective reflexes in the rat, Brain Res., (1988), 450: 153-169). Contraction of these muscles increases intraabdominal pressure and subsequently increases intracolonic pressure. Changes in intracolonic pressure are transduced through the same balloon used to deliver the CRD. The manometric endpoint has recently been reported to mimic electromyographic responses recorded from anterior abdominal wall muscles in rats (Tammpere A, Brusberg M, Axenborg J, Hirsch I, Larsson H and Lindstrom E, Evaluation of pseudo-affective responses to noxious colorectal distension in rats by manometric recordings, Pain, (2005), 116: 220-226)
Stimulus-response data were obtained by delivering two series of 20 sec ramp (15, 30, 45, 60, 75 mmHg) distensions at four-minute intervals and recording the manometric response as follows: the intracolonic pressure signal is passed through a digital 1 Hz highpass filter, rectified and the integral of the initial 15 seconds of the CRD subjected to baseline subtraction (the 15 sec immediately preceding balloon distension); the responses at each distending pressure are averaged to obtain a control stimulus/response curve for each animal. The colorectal balloons were then removed and the animals were returned to their home cages.
The following morning, one treatment group (4 animals) was injected i.p. with 10 mg/kg Compound 7 (solubilized in 5% DMSO and 5% Tween-80 in sterile saline).
One hour later, an acute colitis was induced in all treatment groups by the intracolonic instillation of a 1.5 mL bolus of 2.5% (w/v) zymosan A (from Saccharomyces cerevisiae; Sigma Chemical Co., St. Louis) in 30% ethanol (under light 70% CO2:30% O2 anesthesia). Four hours later, the animals were lightly anesthetized and the colorectal balloons inserted as on the previous day for controlled distensions. The identical CRD stimuli was applied and manometric responses were recorded and analyzed as described for the control phase of the experiment.
The animals in one treatment group (4 animals) were then subcutaneously (s.c.) dosed with 1 mg/kg morphine. As a comparator for analgesic response, animals in another treatment group (9 animals) were dosed s.c. with 3 mg/kg morphine 4 hrs after colitis initiation and 30 min prior to CRD.

male Sprague-Dawley rats [2] = assay: Carrageenan model of inflammatory pain, radiant heat paw withdrawal, compound given after carrageenan (Example 2); assay type: in vivo, rat; conditions: read thirty minutes after compound, mean ± SEM
Description: (§1) To assess the ability of test compounds to reverse thermal hyperalgesia, baseline response latencies on a radiant heat (RH) paw stimulator were obtained before an intraplantar injection of carrageenan-λ (200 μL) in male Sprague-Dawley rats (250-350 g in treatment groups of […] each). Only withdrawal responses that were quick hind paw movements (with or without licking of the hind paw) were recorded. Paw movements associated with locomotion or a shifting of weight were not considered a withdrawal response.
(§2) The weight of each animal was recorded on the day of the experiment. Each animal was placed on a warm (approx. body temperature, 30° C.) glass surface and allowed to acclimate to the test chamber for approximately 10-15 minutes. A radiant thermal stimulus (beam of light) was then focused on the sole of each hind paw in turn, and an initial (baseline) response time to thermal stimuli was recorded for each animal. The stimulus intensity (radiant heat at a setting of 5 Amps) that produced 10-15 sec baseline withdrawal latencies was used and a maximum cutoff of 20 sec was imposed. The light stimulus was automatically shut off by a photoelectric relay when the foot moved or when the cut-off time limit was reached.
The experiment of Example 1 was repeated with the exception that animals were first administered 1% carrageenan (200 μL in sterile saline) subcutaneously into the sub-plantar tissue of the left hind paw to stimulate an acute inflammatory reaction.
Two and a half hours later, withdrawal latencies were assessed (‘post-Cg’). One treatment group (7 animals each) was then injected i.p. with vehicle (5% DMSO and 5% Tween-80 in sterile saline). The other treatment groups (8 animals each) were injected i.p. with 3, 10 or 30 mg/kg Compound 7. Thirty minutes after test compound administration withdrawal latencies were recorded.

male Sprague-Dawley rats [3] = assay: Carrageenan model of inflammatory pain, radiant heat paw withdrawal, compound given before carrageenan (Example 1); assay type: in vivo, rat; conditions: 1 h before 1% carrageenan, mean ± SEM, cutoff 20 sec
Description: Intraplantar injection of carrageenan (Cg) in a rodent produces pronounced hypersensitivity to both thermal and mechanical stimuli. The effects of carrageenan are maximal 2-4 hr after administration.
as §1, §2
One treatment group (8 animals each) was injected i.p. with vehicle (5% DMSO and 5% Tween-80 in sterile saline). The other treatment groups (8 animals each) were injected i.p. with 3, 10 or 30 mg/kg Compound 7.
One hour later, withdrawal latencies for the animals administered vehicle were recorded. After assessment, all animals were administered 1% carrageenan (200 μL in sterile saline) subcutaneously into the sub-plantar tissue of the left hind paw to stimulate an acute inflammatory reaction. Three hours later, the response time of the animals to the thermal stimulus was evaluated.

CN1CCCCC1Cn1cc(C(=O)c2cc([N+](=O)[O-])ccc2I)c2ccccc21 (stereo not shown) [AM1241]
antinociception to thermal stimuli (CB2 receptor): produces antinociception to thermal stimuli

O=C(N[C@H](CO)c1ccccc1)c1n[nH]c2c1CCCCC2Cc1cccc(Cl)c1 (stereo partly drawn) [Compound 1, 8-(3-chloro-benzyl)-1,4,5,6,7,8-hexahydro-cycloheptapyrazole-3-carboxylic acid [(1S)-2-hydroxy-1-phenyl-ethyl]-amide]
% MPE (percent maximal effect) (Male CD-1 mice; 10 mg/kg i.p.): 20.58 ± 9.27 % MPE
% MPE (percent maximal effect) (Male CD-1 mice; 30 mg/kg i.p.): 4.25 ± 10.65 % MPE

C[C@H](NS(=O)(=O)/C=C/c1n[nH]c2c1CCCC/C2=C\c1ccc(Cl)cc1)c1ccccc1 [Compound 7, (2E,8E)-2-[8-(4-chloro-benzylidene)-1,4,5,6,7,8-hexahydro-cycloheptapyrazol-3-yl]-ethenesulfonic acid [(1S)-1-phenyl-ethyl]-amide]
manometric response, percent of initial (control) response ([1]; 15 mmHg distension, 10 mg/kg i.p. 1 h before zymosan colitis, n = 4): 245.7 ± 87.76%
manometric response, percent of initial (control) response ([1]; 30 mmHg distension, 10 mg/kg i.p. 1 h before zymosan colitis, n = 4): 527.2 ± 196.8%
manometric response, percent of initial (control) response ([1]; 45 mmHg distension, 10 mg/kg i.p. 1 h before zymosan colitis, n = 4): 301.3 ± 104.2%
manometric response, percent of initial (control) response ([1]; 60 mmHg distension, 10 mg/kg i.p. 1 h before zymosan colitis, n = 4): 243.7 ± 66.53%
manometric response, percent of initial (control) response ([1]; 75 mmHg distension, 10 mg/kg i.p. 1 h before zymosan colitis, n = 4): 230.9 ± 51.95%
withdrawal latency to radiant thermal stimulus, 0.5 hrs post Cg (male Sprague-Dawley rats [2]; 3 mg/kg i.p. given 2.5 h after carrageenan): 5.30 ± 0.48 s
withdrawal latency to radiant thermal stimulus, 0.5 hrs post Cg (male Sprague-Dawley rats [2]; 10 mg/kg i.p. given 2.5 h after carrageenan): 5.33 ± 0.48 s
withdrawal latency to radiant thermal stimulus, 0.5 hrs post Cg (male Sprague-Dawley rats [2]; 30 mg/kg i.p. given 2.5 h after carrageenan): 4.53 ± 0.39 s
withdrawal latency to radiant thermal stimulus, 3 hrs post Cg administration (male Sprague-Dawley rats [3]; 3 mg/kg i.p.): 8.44 ± 1.88 s
withdrawal latency to radiant thermal stimulus, 3 hrs post Cg administration (male Sprague-Dawley rats [3]; 10 mg/kg i.p.): 7.87 ± 1.01 s
withdrawal latency to radiant thermal stimulus, 3 hrs post Cg administration (male Sprague-Dawley rats [3]; 30 mg/kg i.p.): 6.05 ± 0.83 s

CN1CC[C@]23c4c5ccc(O)c4O[C@H]2[C@@H](O)C=C[C@H]3[C@H]1C5 [Morphine, morphine, reference compound]
manometric response, percent of initial (control) response ([1]; 15 mmHg distension, morphine 3 mg/kg s.c. 4 hrs after colitis initiation, 30 min prior to CRD, n = 9): 96.34 ± 12.53%
manometric response, percent of initial (control) response ([1]; 30 mmHg distension, morphine 3 mg/kg s.c. 4 hrs after colitis initiation, 30 min prior to CRD, n = 9): 69.96 ± 11.21%
manometric response, percent of initial (control) response ([1]; 45 mmHg distension, morphine 3 mg/kg s.c. 4 hrs after colitis initiation, 30 min prior to CRD, n = 9): 61.69 ± 8.72%
manometric response, percent of initial (control) response ([1]; 60 mmHg distension, morphine 3 mg/kg s.c. 4 hrs after colitis initiation, 30 min prior to CRD, n = 9): 56.33 ± 8.23%
manometric response, percent of initial (control) response ([1]; 75 mmHg distension, morphine 3 mg/kg s.c. 4 hrs after colitis initiation, 30 min prior to CRD, n = 9): 63.18 ± 9.19%

Source: US20080234347A1, “METHOD FOR TREATING CB2 RECEPTOR MEDIATED PAIN” (priority 2007, published 2008)
